Data: a melting point compilation (Tetko et al.; mined from patent text by program, amines drawn as free bases though some values may be those of a salt)

Question: Which melting point does the source give for `Cc1ncc(CN2CCN(CCc3ccccc3)CC2)c(N)n1` here?
Answer: Its melting point is 162 to 165 °C.

Question: With `CCCCCCCCCCCCCCCCCCOc1cccc(C(=O)OC)c1O` as the molecule, how does the melting point read?
Answer: The melting point was 57 to 60 °C.

Question: With `N#Cc1cccc2c(Cl)ccc([N+](=O)[O-])c12` as the molecule, how does the melting point read?
Answer: Its melting point is 210 to 212 °C.

Question: Which melting point does the source give for `OCC(Nc1ccnc2cc(Cl)ccc12)c1ccccc1` (stereo not given) here?
Answer: Its melting point is 220 to 221 °C.

Question: With `CCOc1cc2c(Nc3ccc(OC)cc3)c(C#N)cnc2nc1C` as the molecule, how does the melting point read?
Answer: The melting point was 190 to 192 °C.

Question: For `COC(=O)c1c(Cl)cc(Cl)c2cc(Cl)ccc12`, which melting point is on record?
Answer: The melting point was 110 to 112 °C.

Question: Which melting point does the source give for `CCCN(CCC)C(N)=C(C#N)C#N` here?
Answer: The melting point was 100 to 105 °C.

Question: Which melting point does the source give for `C#Cc1[nH]c2cccc3c2c1CC1C3CC(NC(=O)N(CC)CC)CN1C` (stereo not given) here?
Answer: Its melting point is 192 °C.

Question: With `COC(=O)c1cc(-n2cnnc2)c(C(F)(F)F)cc1NC(C)=O` as the molecule, how does the melting point read?
Answer: The melting point was 180 to 184 °C.

Question: For `COc1ccc(Cc2cc3cccc(-c4cccc(C(=O)O)c4)c3o2)cc1OC`, which melting point is on record?
Answer: Its melting point is 122 to 123 °C.

Question: For `CC(C)Cc1nn(C)c(=O)c2c(SCCCO)n(Cc3cccc4ccccc34)nc12`, which melting point is on record?
Answer: The melting point was 141 to 142 °C.

Question: For `CN(C)c1cc2nc(C(C)(C)C)sc2cc1N`, which melting point is on record?
Answer: Its melting point is 169 °C.

Question: With `COc1cc2c(cc1-c1c(C)nn(C)c1C)-c1c(-c3cccs3)c3c(n1CC2)C(=O)N(C(C)C)CCNC3` as the molecule, how does the melting point read?
Answer: Its melting point is 250 to 252 °C.

Question: For `O=C(OC1CCN(Cc2ccccc2)CC1)c1ccccc1Br`, which melting point is on record?
Answer: Its melting point is 69 to 70 °C.

Question: Which melting point does the source give for `O=[N+]([O-])c1ccc(OC2SCC(O)C(O)C2O)cc1` (stereo not given) here?
Answer: The melting point was 130 to 132 °C.

Question: Which melting point does the source give for `Nc1cc(Cl)ncc1F` here?
Answer: Its melting point is 110 to 111 °C.

Question: Which melting point does the source give for `OCc1c(CN2CCN(c3ccc(Cl)cc3Cl)CC2)nc2ccc(Cl)cn12` here?
Answer: The melting point was 165 to 166 °C.

Question: Which melting point does the source give for `Nc1nc2ccccc2c2c1ncn2CCCCNC(=O)c1ccnc2ccccc12` here?
Answer: The melting point was 214 to 215 °C.

Question: With `CC(C)CCC(O)C(C(=O)C(Cc1c[nH]cn1)N(C)C(=O)C(Cc1ccccc1)OC(=O)N(C)CCN(C)C(=O)C(C)C)C(N)C1CCCCC1` (stereo not given) as the molecule, how does the melting point read?
Answer: The melting point was 68 to 72 °C.

Question: Which melting point does the source give for `COc1cc(C(=O)Nc2cc(-c3c(-c4ccc(F)c(C)c4)nc4cccnn34)ccn2)ccc1F` here?
Answer: The melting point was 217 to 218 °C.

Question: For `Cc1ccc2c(c1)c(=O)c(-c1nnnn1C)cn2C`, which melting point is on record?
Answer: Its melting point is 281 to 282 °C.

Question: With `CCCn1c(-c2ccc3c(c2)OCO3)nc2ccccc21` as the molecule, how does the melting point read?
Answer: The melting point was 77.5 to 78 °C.

Question: For `CCCOCCOc1cccc(-c2ccc3c(c2)C=C(C(=O)Nc2ccc(CN(C)C4CCOCC4)cc2)CCS3(=O)=O)c1`, which melting point is on record?
Answer: The melting point was 166 to 167 °C.

Question: Which melting point does the source give for `CC(C)(C)OC(=O)NOCCC(=O)Oc1c(F)c(F)c(F)c(F)c1F` here?
Answer: The melting point was 58 to 59 °C.

Question: Which melting point does the source give for `O=C1c2ccccc2C(Nc2ccccc2)N1CCCN1CC=C(c2ccccc2)CC1` (stereo not given) here?
Answer: The melting point was 119 °C.

Question: Which melting point does the source give for `CCOC(=O)Cn1nc(-c2ccc(OC)cc2)cc(C(=O)NC)c1=O` here?
Answer: The melting point was 141 to 142 °C.

Question: For `O=Cc1ccc2c(ccc3cc4ccccc4cc32)c1`, which melting point is on record?
Answer: Its melting point is 144 to 145 °C.

Question: With `CC(C)(C)OC(=O)N1c2ccccc2CC1COc1ccc(CC2SC(=O)N(C(c3ccccc3)(c3ccccc3)c3ccccc3)C2=O)cc1` (stereo not given) as the molecule, how does the melting point read?
Answer: Its melting point is 85.4 to 87.2 °C.

Question: With `CC(C)(CC(=O)C(=O)Nc1ccc2c(c1)COC2=O)c1cccc(I)c1` as the molecule, how does the melting point read?
Answer: The melting point was 160 to 161 °C.

Question: For `CCOc1ccc(CCNC(=O)/C=C/c2cccs2)cc1S(N)(=O)=O`, which melting point is on record?
Answer: Its melting point is 55 °C.

Question: Which melting point does the source give for `O=c1nc(-c2ccccc2)c2cc([N+](=O)[O-])ccc2n1CC(F)(F)F` here?
Answer: The melting point was 195 to 196 °C.

Question: With `CN1CCN2c3ccccc3C(O)c3ccccc3C2C1` (stereo not given) as the molecule, how does the melting point read?
Answer: Its melting point is 137 to 138 °C.

Question: For `CCn1nc2c(N)nc3ccccc3c2c1CC(C)(C)O`, which melting point is on record?
Answer: The melting point was 223 to 225 °C.

Question: Which melting point does the source give for `CCOC(=O)CCCCCCC1NC(=O)NC1=O` (stereo not given) here?
Answer: The melting point was 110 °C.

Question: With `CNc1nc(C)c(C(=O)c2ccc(N)c([N+](=O)[O-])c2)s1` as the molecule, how does the melting point read?
Answer: Its melting point is 260 to 261 °C.

Question: With `CC(=O)Nc1ccc(NC(=O)CCl)c(O)c1` as the molecule, how does the melting point read?
Answer: The melting point was 218 °C.

Question: With `COc1ccc(OCCCCCc2cc(C)on2)c(Cl)c1` as the molecule, how does the melting point read?
Answer: The melting point was 45 to 47 °C.

Question: Which melting point does the source give for `COc1cc(OC)cc(C(=O)N2CCc3cc(O)c(OC)cc3C2=O)c1` here?
Answer: The melting point was 198 to 199 °C.

Question: Which melting point does the source give for `CCOCc1nc2c(N)nc3cc(-c4cccc(C(=O)N5CCOCC5)c4)cnc3c2n1CC(C)(C)F` here?
Answer: The melting point was 167 to 168 °C.

Question: With `Cc1cc(=O)c(C(=O)Nc2ccccc2)c(-c2ccccc2)o1` as the molecule, how does the melting point read?
Answer: The melting point was 222 to 226 °C.

Question: Which melting point does the source give for `CCCN1Cc2cscc2Nc2ccccc21` here?
Answer: The melting point was 78 to 79 °C.

Question: With `Cc1c(C2CCN(Cc3ccccc3)CC2)n[nH]c1-c1ccc(Cl)cc1` as the molecule, how does the melting point read?
Answer: Its melting point is 188 to 190 °C.

Question: For `C#CCNC(=O)C(F)(F)F`, which melting point is on record?
Answer: Its melting point is 31 to 33 °C.

Question: Which melting point does the source give for `O=[N+]([O-])c1ccccc1C(=C(Br)Br)c1ccc(F)cc1` here?
Answer: Its melting point is 99 to 100 °C.

Question: With `Cc1cc(C(c2ccc(C(c3ccc(O)c(C)c3)c3ccc(O)c(C)c3)cc2)c2ccc(O)c(C)c2)ccc1O` as the molecule, how does the melting point read?
Answer: The melting point was 195 °C.

Question: For `CCC1(C)CN(c2c(F)c(N)c3c(=O)c(C(=O)O)cn(C4CC4)c3c2OC)CCC1NC` (stereo not given), which melting point is on record?
Answer: Its melting point is 164 to 166 °C.

Question: Which melting point does the source give for `COc1ccc(NC(=O)NCc2ccc(-n3c(-c4cccnc4N)nc4cccnc43)cc2)cc1` here?
Answer: Its melting point is 224 to 226 °C.

Question: With `COCCCNc1cc(C)ccc1N` as the molecule, how does the melting point read?
Answer: The melting point was 69 to 72 °C.

Question: For `CCOC(=O)c1ccc(-c2c(F)ccc([N+](=O)[O-])c2F)cc1`, which melting point is on record?
Answer: The melting point was 85 to 86.7 °C.

Question: Which melting point does the source give for `COCOc1ccc(-n2c(SCc3ccc(Br)cc3)nc3ccc(Cl)cc32)cc1` here?
Answer: Its melting point is 123 to 124 °C.
